Data as given in the supplement of paper PMC11061612.

Key:
Test in all cases: Bliss excess, mean over the matrix (fraction); higher = more synergy
[1] = system: LB831-BLC (Bladder Carcinoma)
Outline: (§1)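 After 24 hours at 37°C and 5% CO2 in 1536-well plates, cells in DMEM/F12 or RPMI plus 10% FBS received two-drug dose matrices for 72 hours. Viability came from CellTiter-Glo 2.0 luminescence and was scaled as inhibition, anchored at 0 by vehicle wells and at 1 by blank wells. Combination Emax is taken as the second-highest inhibition in the matrix, and Bliss excess as the observed combination effect less EA + EB − EA·EB, with EA and EB the single-agent effects.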

[2] = system: TE-9 (Esophageal Squamous Cell Carcinoma)
Outline: as §1

[3] = system: LU-135 (Small Cell Lung Carcinoma)
Outline: as §1

[4] = system: Ramos-2G6-4C10 (Burkitt's Lymphoma)
Outline: as §1

[5] = system: NCI-H2085 (Non-Small Cell Lung Carcinoma)
Outline: as §1

[6] = system: SNU-5 (Gastric Carcinoma)
Outline: as §1

[7] = system: AGS (Gastric Carcinoma)
Outline: as §1

[8] = system: MDA-MB-361 (Breast Carcinoma)
Outline: as §1

[9] = system: CaR-1 (Colorectal Carcinoma)
Outline: as §1

[10] = system: DEL (T-Cell Non-Hodgkin's Lymphoma)
Outline: as §1

[11] = system: T98G (Glioblastoma)
Outline: as §1

[12] = system: 42-MG-BA (Glioblastoma)
Outline: as §1

[13] = system: SK-ES-1 (Ewing's Sarcoma)
Outline: as §1

[14] = system: TE-15 (Esophageal Squamous Cell Carcinoma)
Outline: as §1

[15] = system: MFE-296 (Endometrial Carcinoma)
Outline: as §1

[16] = system: UM-UC-3 (Bladder Carcinoma)
Outline: as §1

[17] = system: ME-1 (Acute Myeloid Leukemia)
Outline: as §1

[18] = system: ES4 (Ewing's Sarcoma)
Outline: as §1

[19] = system: CCRF-CEM (T-Lymphoblastic Leukemia)
Outline: as §1

| SMILES | Bliss excess [1] | Bliss excess [2] | Bliss excess [3] | Bliss excess [4] | Bliss excess [5] | Bliss excess [6] | Bliss excess [7] | Bliss excess [8] | Bliss excess [9] | Bliss excess [10] | Bliss excess [11] | Bliss excess [12] | Bliss excess [13] | Bliss excess [14] | Bliss excess [15] | Bliss excess [16] | Bliss excess [17] | Bliss excess [18] | Bliss excess [19] |
| --- | --- | --- | --- | --- | --- | --- | --- | --- | --- | --- | --- | --- | --- | --- | --- | --- | --- | --- | --- |
| CN(C)CCCOc1ccc(-c2ccc3ncc4c(c3c2)n(C2CCOCC2)c(=O)n4C)cn1 [AZD0156] + C=CCn1c(=O)c2cnc(Nc3ccc(N4CCN(C)CC4)cc3)nc2n1-c1cccc(C(C)(C)O)n1 [AZD1775] (first compound max 1 µM, partner max 1 µM) | -0.104 | -0.0422 | 0.0024 | 0.0365 | -0.0406 | -0.0705 | -0.0517 | -0.006 | -0.0445 | -0.0036 | -0.0598 | 0.0275 | 0.0045 | -0.0705 | -0.0553 | -0.007 | -0.0276 | 0.0122 | 0.0192 |
| CN(C)CCCOc1ccc(-c2ccc3ncc4c(c3c2)n(C2CCOCC2)c(=O)n4C)cn1 [AZD0156] + CCN(CCO)CCCOc1ccc2c(Nc3cc(CC(=O)Nc4cccc(F)c4)[nH]n3)ncnc2c1 [AZD2811] (first compound max 1 µM, 7x7, partner max 1 µM) | -0.0356 | -0.0214 | -0.0008 | 0.0919 | -0.0194 | 0.0036 | -0.0047 | -0.0078 | -0.0097 | 0.117 | -0.0655 | 0.0813 | -0.0011 | -0.0382 | -0.0356 | -0.0079 | -0.0275 | 0.03 | 0.0045 |
| CN(C)CCCOc1ccc(-c2ccc3ncc4c(c3c2)n(C2CCOCC2)c(=O)n4C)cn1 [AZD0156] + C[C@@H]1COCCN1C2=NC(=NC(=C2)C3(CC3)[S@](=N)(=O)C)C4=C5C=CNC5=NC=C4 [AZD6738] (first compound max 1 µM, 7x7, partner max 10 µM) | -0.0333 | -0.0034 | -0.032 | 0.0933 | 0.0274 | -0.0347 | 0.0232 | 0.0366 | -0.0449 | 0.0293 | -0.0297 | 0.0224 | 0.0267 | -0.0283 | -0.0485 | 0.0101 | -0.107 | 0.0618 | 0.0002 |
| C=CCn1c(=O)c2cnc(Nc3ccc(N4CCN(C)CC4)cc3)nc2n1-c1cccc(C(C)(C)O)n1 [AZD1775] + C[C@@H]1COCCN1C2=NC(=NC(=C2)C3(CC3)[S@](=N)(=O)C)C4=C5C=CNC5=NC=C4 [AZD6738] (first compound max 1 µM, partner max 10 µM) | 0.0042 | 0.0638 | -0.0044 | 0.0915 | 0.0147 |  | 0.113 | -0.0113 | 0.0177 | 0.0252 | -0.0178 | 0.0384 | 0.0071 | -0.0076 | 0.0428 | 0.0606 | -0.0241 | 0.0417 | 0.0391 |
| C=CCn1c(=O)c2cnc(Nc3ccc(N4CCN(C)CC4)cc3)nc2n1-c1cccc(C(C)(C)O)n1 [AZD1775] + O=C(c1cc(Cc2n[nH]c(=O)c3ccccc23)ccc1F)N1CCN(C(=O)C2CC2)CC1 [Olaparib] (first compound max 1 µM, partner max 10 µM) | -0.01 | -0.0271 | -0.0249 | -0.0238 | -0.0353 | -0.0833 | 0.0116 | -0.0357 | -0.0077 | 0.0023 | -0.113 | 0.0093 | 0.0511 | -0.106 | -0.0218 | 0.0251 | -0.0873 | 0.0199 | -0.0381 |
| CCN(CCO)CCCOc1ccc2c(Nc3cc(CC(=O)Nc4cccc(F)c4)[nH]n3)ncnc2c1 [AZD2811] + C=CCn1c(=O)c2cnc(Nc3ccc(N4CCN(C)CC4)cc3)nc2n1-c1cccc(C(C)(C)O)n1 [AZD1775] (first compound max 1 µM, partner max 1 µM) | 0.005 | -0.0285 | -0.0346 | 0.0096 | 0.0061 | -0.0294 | 0.0156 | -0.0044 | -0.0165 | 0.0636 | -0.0167 | 0.081 | 0.028 | -0.0576 | -0.0245 | -0.0171 | -0.0812 | -0.0024 | 0.006 |
| CCN(CCO)CCCOc1ccc2c(Nc3cc(CC(=O)Nc4cccc(F)c4)[nH]n3)ncnc2c1 [AZD2811] + C[C@@H]1COCCN1C2=NC(=NC(=C2)C3(CC3)[S@](=N)(=O)C)C4=C5C=CNC5=NC=C4 [AZD6738] (first compound max 1 µM, 7x7, partner max 10 µM) | -0.0744 | -0.009 | -0.0552 | -0.0008 | -0.0913 | -0.0209 | -0.0191 | -0.0816 | -0.0528 | 0.0156 | -0.0645 | 0.037 | 0.0382 | -0.0063 | -0.0728 | 0.0276 | -0.0813 | -0.0042 | -0.0295 |
| CCN(CCO)CCCOc1ccc2c(Nc3cc(CC(=O)Nc4cccc(F)c4)[nH]n3)ncnc2c1 [AZD2811] + O=C(c1cc(Cc2n[nH]c(=O)c3ccccc23)ccc1F)N1CCN(C(=O)C2CC2)CC1 [Olaparib] (first compound max 1 µM, 7x7, partner max 10 µM) | 0.0083 | -0.0111 | -0.0632 | 0.0573 | -0.0109 | -0.0237 | 0.0484 | -0.0133 | 0.0213 | 0.0328 | 0.0112 | 0.009 | -0.0075 | -0.0125 | -0.011 | 0.0332 | 0.0119 | -0.0138 | -0.0134 |
| C[C@@H]1COCCN1c1cc(C2([S@](C)(=N)=O)CC2)nc(-c2ccnc3[nH]ccc23)n1 [AZD6738] + O=C(c1cc(Cc2n[nH]c(=O)c3ccccc23)ccc1F)N1CCN(C(=O)C2CC2)CC1 [Olaparib] (first compound max 10 µM, 7x7, partner max 10 µM) | 0.0336 | 0.0403 | 0.0331 | -0.0881 | -0.0571 | -0.0464 | -0.0108 | -0.0376 | -0.0391 | 0.0399 | -0.0192 | 0.0142 | 0.0804 | -0.0465 | 0.029 | 0.0829 | -0.0056 | 0.0608 | 0.0377 |
| Cc1cc2ncnn2cc1Nc1ncc2c(n1)n(C1CCOCC1)c(=O)n2C [AZD7648] + C=CCn1c(=O)c2cnc(Nc3ccc(N4CCN(C)CC4)cc3)nc2n1-c1cccc(C(C)(C)O)n1 [AZD1775] (first compound max 10 µM, partner max 1 µM) | -0.0611 | 0.0148 | -0.0169 | 0.0005 | 0.0418 | 0.0073 | -0.0152 | -0.0854 | 0.0022 | 0.023 | 0.0062 | -0.052 | 0.0322 | 0.0223 | -0.0096 | 0.0279 | 0.0321 | 0.0337 | 0.0337 |
| Cc1cc2ncnn2cc1Nc1ncc2c(n1)n(C1CCOCC1)c(=O)n2C [AZD7648] + CCN(CCO)CCCOc1ccc2c(Nc3cc(CC(=O)Nc4cccc(F)c4)[nH]n3)ncnc2c1 [AZD2811] (first compound max 10 µM, 7x7, partner max 1 µM) | -0.0477 | -0.0002 | -0.0223 | 0.188 | 0.0409 | 0.0543 | 0.0641 | -0.0082 | -0.0102 | 0.0547 | 0.0116 | 0.0312 | 0.0065 | -0.0213 | -0.0112 | 0.001 | 0.0036 | 0.0076 | -0.0396 |
| Cc1cc2ncnn2cc1Nc1ncc2c(n1)n(C1CCOCC1)c(=O)n2C [AZD7648] + CN(C)CCCOc1ccc(-c2ccc3ncc4c(c3c2)n(C2CCOCC2)c(=O)n4C)cn1 [AZD0156] (first compound max 10 µM, 7x7, partner max 1 µM) | -0.0154 | 0.009 | -0.0088 | 0.0236 | -0.0343 | 0.0166 | 0.0178 | -0.0656 | 0.0399 | 0.0956 | -0.0317 | -0.0313 | 0.0628 | -0.0383 | 0.0042 | 0.014 | -0.0326 | -0.0163 | -0.003 |
| Cc1cc2ncnn2cc1Nc1ncc2c(n1)n(C1CCOCC1)c(=O)n2C [AZD7648] + C[C@@H]1COCCN1C2=NC(=NC(=C2)C3(CC3)[S@](=N)(=O)C)C4=C5C=CNC5=NC=C4 [AZD6738] (first compound max 10 µM, 7x7, partner max 10 µM) | 0.0485 | 0.0252 | 0.0123 | 0.0129 | 0.0007 | 0.0337 | 0.0015 | -0.0263 | 0.0287 | 0.0052 | 0.0339 | -0.0581 | 0.0046 | -0.0193 | 0.0193 | 0.0223 | -0.0321 | 0.0062 | 0.0206 |
| Cc1cc2ncnn2cc1Nc1ncc2c(n1)n(C1CCOCC1)c(=O)n2C [AZD7648] + O=C(c1cc(Cc2n[nH]c(=O)c3ccccc23)ccc1F)N1CCN(C(=O)C2CC2)CC1 [Olaparib] (first compound max 10 µM, 7x7, partner max 10 µM) | 0.0067 | -0.0264 | 0.0148 | -0.0281 | -0.0444 | -0.0316 | -0.007 | -0.0204 | -0.0399 | 0.0174 | -0.0965 | 0.0303 | 0.0254 | -0.0399 | -0.0255 | -0.0297 | -0.004 | 0.0132 | -0.0213 |
| COc1cccc2c1C(=O)c1c(O)c3c(c(O)c1C2=O)C[C@@](O)(C(=O)CO)C[C@@H]3O[C@H]1C[C@H](N)[C@H](O)[C@H](C)O1 [Doxorubicin] + Cc1cc2ncnn2cc1Nc1ncc2c(n1)n(C1CCOCC1)c(=O)n2C [AZD7648] (first compound max 1 µM, 7x7, partner max 10 µM) | 0.0858 | -0.0393 | 0.0388 | 0.0786 | 0.0299 | 0.007 | 0.109 | 0.0255 | 0.0309 | 0.0935 | 0.0257 | 0.0271 | 0.143 | 0.0507 | -0.0119 | 0.0688 | 0.027 | 0.0761 | 0.123 |
| CCc1c2c(nc3ccc(O)cc13)-c1cc3c(c(=O)n1C2)COC(=O)[C@]3(O)CC [SN-38] + O=C(c1cc(Cc2n[nH]c(=O)c3ccccc23)ccc1F)N1CCN(C(=O)C2CC2)CC1 [Olaparib] (first compound max 0.3 µM, 7x7, partner max 10 µM) | 0.0617 | 0.0419 | 0.0545 | 0.0338 | -0.0181 |  | 0.0897 |  | 0.0221 | 0.0923 | 0.107 | 0.0749 | 0.0611 | 0.0207 | 0.0741 | 0.0493 | 0.0041 | -0.0648 | 0.0463 |
